PubChem BioAssay AID1259407 (Chemical Carcinogenesis Research Information System (CCRIS), 2018)
Calls of active or inactive are those of the source. No rule for the calls is given here.

System: CCRIS mutagenicity, Ames/micronucleus/aberration tests
Test: CCRIS mutagenicity studies
[1] = Test System: AMES SALMONELLA TYPHIMURIUM, Strain/Indicator: TA100, Metabolic Activation: NONE, Method: STANDARD PLATE
[2] = Test System: AMES SALMONELLA TYPHIMURIUM, Strain/Indicator: TA100, Metabolic Activation: RAT, LIVER, S-9, PHENOBARBITAL, Method: STANDARD PLATE
[3] = Test System: AMES SALMONELLA TYPHIMURIUM, Strain/Indicator: TA1537, Metabolic Activation: NONE, Method: STANDARD PLATE
[4] = Test System: AMES SALMONELLA TYPHIMURIUM, Strain/Indicator: TA98, Metabolic Activation: NONE, Method: STANDARD PLATE

CN(C)/N=N/c1nc[nH]c1C(N)=O
mutagenic call (Test System: AMES SALMONELLA TYPHIMURIUM, Strain/Indicator: G46, Metabolic Activation: NONE, Method: STANDARD PLATE): inactive; negative | mutagenic call (Test System: AMES SALMONELLA TYPHIMURIUM, Strain/Indicator: G46, Metabolic Activation: RAT, LIVER, S-9, PHENOBARBITAL, Method: STANDARD PLATE): active; positive | mutagenic call (Test System: AMES SALMONELLA TYPHIMURIUM, Strain/Indicator: TA92, Metabolic Activation: NONE, Method: STANDARD PLATE): active; positive | mutagenic call (Test System: AMES SALMONELLA TYPHIMURIUM, Strain/Indicator: TA92, Metabolic Activation: RAT, LIVER, S-9, PHENOBARBITAL, Method: STANDARD PLATE): active; positive | mutagenic call (Test System: AMES SALMONELLA TYPHIMURIUM, Strain/Indicator: TA97, Metabolic Activation: HAMSTER, LIVER, S-9, AROCLOR 1254 (10%), Method: PREINCUBATION): active; positive | mutagenic call (Test System: AMES SALMONELLA TYPHIMURIUM, Strain/Indicator: TA97, Metabolic Activation: NONE, Method: PREINCUBATION): active; positive | mutagenic call (Test System: AMES SALMONELLA TYPHIMURIUM, Strain/Indicator: TA97, Metabolic Activation: RAT, LIVER, S-9, AROCLOR 1254 (10%), Method: PREINCUBATION): active; positive | mutagenic call (Test System: AMES SALMONELLA TYPHIMURIUM, Strain/Indicator: TA98, Metabolic Activation: HAMSTER, LIVER, S-9, AROCLOR 1254 (10%), Method: PREINCUBATION): active; positive | mutagenic call (Test System: AMES SALMONELLA TYPHIMURIUM, Strain/Indicator: TA98, Metabolic Activation: RAT, LIVER, S-9, AROCLOR 1254 (10%), Method: PREINCUBATION): active; positive | mutagenic call (Test System: AMES SALMONELLA TYPHIMURIUM, Strain/Indicator: TA98, Metabolic Activation: S-9, Method: PREINCUBATION): inactive; negative | mutagenic call (Test System: AMES SALMONELLA TYPHIMURIUM, Strain/Indicator: TA100, Metabolic Activation: HAMSTER, LIVER, S-9, AROCLOR 1254 (10%), Method: PREINCUBATION): active; positive | mutagenic call [1]: active; positive | mutagenic call (Test System: AMES SALMONELLA TYPHIMURIUM, Strain/Indicator: TA100, Metabolic Activation: RAT, LIVER, S-9, AROCLOR 1254 (10%), Method: PREINCUBATION): active; positive | mutagenic call [2]: active; positive | mutagenic call (Test System: AMES SALMONELLA TYPHIMURIUM, Strain/Indicator: TA100, Metabolic Activation: S-9, Method: PREINCUBATION): inactive; negative | mutagenic call (Test System: AMES SALMONELLA TYPHIMURIUM, Strain/Indicator: TA1535, Metabolic Activation: HAMSTER, LIVER, S-9, AROCLOR 1254 (10%), Method: PREINCUBATION): active; positive | mutagenic call (Test System: AMES SALMONELLA TYPHIMURIUM, Strain/Indicator: TA1535, Metabolic Activation: NONE, Method: PREINCUBATION): inactive; negative | mutagenic call (Test System: AMES SALMONELLA TYPHIMURIUM, Strain/Indicator: TA1535, Metabolic Activation: RAT, LIVER, S-9, AROCLOR 1254 (10%), Method: PREINCUBATION): active; positive | mutagenic call (Test System: E. COLI, Strain/Indicator: TM6, Metabolic Activation: NONE, Method: STANDARD PLATE): active; positive | mutagenic call (Test System: E. COLI, Strain/Indicator: TM6, Metabolic Activation: RAT, LIVER, S-9, PHENOBARBITAL, Method: STANDARD PLATE): active; positive | mutagenic call (Test System: E. COLI, Strain/Indicator: TM9, Metabolic Activation: NONE, Method: STANDARD PLATE): active; positive | mutagenic call (Test System: E. COLI, Strain/Indicator: TM9, Metabolic Activation: RAT, LIVER, S-9, PHENOBARBITAL, Method: STANDARD PLATE): active; positive | mutagenic call (Test System: E. COLI, Strain/Indicator: WP2, Metabolic Activation: NONE, Method: STANDARD PLATE): active; positive | mutagenic call (Test System: E. COLI, Strain/Indicator: WP2, Metabolic Activation: RAT, LIVER, S-9, PHENOBARBITAL, Method: STANDARD PLATE): active; positive | mutagenic call (Test System: E. COLI, Strain/Indicator: WP2 UVRA, Metabolic Activation: NONE, Method: STANDARD PLATE): active; positive | mutagenic call (Test System: E. COLI, Strain/Indicator: WP2 UVRA, Metabolic Activation: RAT, LIVER, S-9, PHENOBARBITAL, Method: STANDARD PLATE): active; positive

C/C=C(/C)C(=O)O[C@@H]1CCN2CC=C(CO)[C@H]12
mutagenic call (Test System: AMES SALMONELLA TYPHIMURIUM, Strain/Indicator: TA100, Metabolic Activation: RAT, LIVER, S-9, SODIUM PHENOBARBITAL AND BETA-NAPHTHOFLAVONE, Method: PREINCUBATION): inactive; negative

CN(C)CCNC(=O)c1cccc2c(=O)c3ccccc3sc12
mutagenic call [3]: active; positive

CCCNNCCC
mutagenic call (Test System: AMES SALMONELLA TYPHIMURIUM, Strain/Indicator: TA100, Metabolic Activation: NONE, Method: PREINCUBATION (11 HR GROWTH PERIOD FOR BACTERIA)): active; positive | mutagenic call (Test System: AMES SALMONELLA TYPHIMURIUM, Strain/Indicator: TA100, Metabolic Activation: RAT, LIVER, S-9, PCB, Method: PREINCUBATION (11 HR GROWTH PERIOD FOR BACTERIA)): inactive; negative | mutagenic call (Test System: AMES SALMONELLA TYPHIMURIUM, Strain/Indicator: TA102, Metabolic Activation: NONE, Method: PREINCUBATION (5 OR 7 HR GROWTH PERIOD FOR BACTERIA)): active; positive | mutagenic call (Test System: AMES SALMONELLA TYPHIMURIUM, Strain/Indicator: TA102, Metabolic Activation: RAT, LIVER, S-9, PCB, Method: PREINCUBATION (5 OR 7 HR GROWTH PERIOD FOR BACTERIA)): active; positive

N=C(N)c1ccc(-c2cc3ccc(C(=N)N)cc3s2)cc1
mutagenic call [4]: inactive; negative | mutagenic call (Test System: AMES SALMONELLA TYPHIMURIUM, Strain/Indicator: TA98, Metabolic Activation: RAT, LIVER, S-9, PHENOBARBITAL, Method: STANDARD PLATE): inactive; negative | mutagenic call [1]: inactive; negative | mutagenic call [2]: inactive; negative

O=C(O)[C@H]1OC(Oc2cccc3c2cc2ccc4cccc5ccc3c2c45)[C@H](O)[C@@H](O)[C@@H]1O (stereo partly drawn)
mutagenic call (Test System: AMES SALMONELLA TYPHIMURIUM, Strain/Indicator: TA98, Metabolic Activation: NONE, Method: PREINCUBATION): inactive; negative | mutagenic call (Test System: AMES SALMONELLA TYPHIMURIUM, Strain/Indicator: TA98, Metabolic Activation: RAT, LUNG, S-9, Method: PREINCUBATION): inactive; negative

CC(C)c1cc(N)c([N+](=O)[O-])cc1N
mutagenic call [4]: inactive; negative | mutagenic call (Test System: AMES SALMONELLA TYPHIMURIUM, Strain/Indicator: TA98, Metabolic Activation: RAT, LIVER, S-9, AROCLOR 1254, Method: STANDARD PLATE): active; positive | mutagenic call [1]: inactive; negative | mutagenic call (Test System: AMES SALMONELLA TYPHIMURIUM, Strain/Indicator: TA100, Metabolic Activation: RAT, LIVER, S-9, AROCLOR 1254, Method: STANDARD PLATE): inactive; negative | mutagenic call (Test System: AMES SALMONELLA TYPHIMURIUM, Strain/Indicator: TA1535, Metabolic Activation: NONE, Method: STANDARD PLATE): inactive; negative | mutagenic call (Test System: AMES SALMONELLA TYPHIMURIUM, Strain/Indicator: TA1535, Metabolic Activation: RAT, LIVER, S-9, AROCLOR 1254, Method: STANDARD PLATE): inactive; negative | mutagenic call [3]: inactive; negative | mutagenic call (Test System: AMES SALMONELLA TYPHIMURIUM, Strain/Indicator: TA1537, Metabolic Activation: RAT, LIVER, S-9, AROCLOR 1254, Method: STANDARD PLATE): inactive; negative | mutagenic call (Test System: AMES SALMONELLA TYPHIMURIUM, Strain/Indicator: TA1538, Metabolic Activation: NONE, Method: STANDARD PLATE): inactive; negative | mutagenic call (Test System: AMES SALMONELLA TYPHIMURIUM, Strain/Indicator: TA1538, Metabolic Activation: RAT, LIVER, S-9, AROCLOR 1254, Method: STANDARD PLATE): active; positive
